Laboratory results reported in US7855191B2, “Agent having a destructive effect on malignant tumors and method for the production thereof” (C.Y.L. Pharmazeutika GmbH, priority 2002, dated 2010).

How the values were obtained:
[1] = system: mammary carcinoma; conditions: rats with 1-methyl-1-nitro urea induced mammary cancer; cited from earlier work
[2] = system: malignant brain tumors; conditions: cited from earlier work
[3] = Compatibility of selenium compounds with alpha-ketoglutaric acid in the preparation; assay type: physicochemical; conditions: for reaction / compatibility with alpha-ketoglutaric acid: on addition to the preparation of EP 326826 B1
Method: Thus initially the research was carried out by the addition of selenium in the form of selenite. […] Attempts were made to suppress this redox reaction by incorporating the selenium in organic compounds. As such a compound, finally seleno-methionine was selected. […] However, with the addition of this compound as a complement to the composition of European Patent 326826 B1 there is a danger that this substance will be incorporated into body proteins, and effect which might reduce the desired effect of the N-acetyl-seleno-L-methionine or cause the effect of that compound to be completely lost.

| Compound | density of the intra tumoral microvessels in the mammary carcinoma [1] | general well-being of the patients ([2]; manifested by erythrocyte number, hemoglobin value, thrombocyte count) | patients who felt a reduction in unpleasant side effects ([2]; patients with malignant brain tumors) [%] | reaction / compatibility with alpha-ketoglutaric acid [3] | Maillard reaction with ketoglutaric acid ([3]; especially at the higher temperatures of heat sterilization) |
| --- | --- | --- | --- | --- | --- |
| O=[Se]([O-])[O-].[Na+].[Na+] [selenite, Na-selenite] | significantly reduced | improvement in the general well-being | 76 | amorphous selenium precipitated out |  |
| C[Se]CC[C@H](N)C(=O)O [seleno-methionine] |  |  |  | does not react with the alphaketoglutaric acid | undergoes a Maillard reaction with the ketoglutaric acid |
